Results on 16 substances are retold here after US20100216690A1, “Pegylated Single-Chain Insulin” (Novo Nordisk A/S, priority 2005, published 2010).

In the first test the target is T1, human insulin receptor (IR) (Homo sapiens, UniProt P06213). Nature of the test: Binding affinity to the human insulin receptor relative to human insulin (SPA antibody capture assay). Conditions: binding affinity to the human insulin receptor relative to that of human insulin. The procedure:
The PEGylated single-chain insulins were tested for biological insulin activity as measured by binding affinity to the human insulin receptor (IR) relative to that of human insulin as described below.
Insulin receptor binding of the PEGylated single-chain insulins of the invention.
The affinity of the PEGylated, single-chain insulins the invention for the human insulin receptor is determined by a SPA assay (Scintillation Proximity Assay) microtiterplate antibody capture assay. SPA-PVT antibody-binding beads, anti-mouse reagent (Amersham Biosciences, Cat No. PRNQ0017) are mixed with 25 ml of binding buffer (100 mM HEPES pH 7.8; 100 mM sodium chloride, 10 mM MgSO4, 0.025% Tween-20). Reagent mix for a single Packard Optiplate (Packard No. 6005190) is composed of 2.4 μl of a 1:5000 diluted purified recombinant human insulin receptor—exon 11, an amount of a stock solution of A14 Tyr[125I]-human insulin corresponding to 5000 cpm per 100 μl of reagent mix, 12 μl of a 1:1000 dilution of F12 antibody, 3 ml of SPA-beads and binding buffer to a total of 12 ml. A total of 100 μl is then added and a dilution series is made from appropriate samples. To the dilution series is then added 100 μl of reagent mix and the samples were incubated for 16 hours while gently shaken. The phases are then separated by centrifugation for 1 min and the plates counted in a Topcounter. The binding data are fitted using the nonlinear regression algorithm in the GraphPad Prism 2.01 (GraphPad Software, San Diego, Calif.).
Target sequence in this assay (P06213 28-746 isoform P06213-2 limits assumed): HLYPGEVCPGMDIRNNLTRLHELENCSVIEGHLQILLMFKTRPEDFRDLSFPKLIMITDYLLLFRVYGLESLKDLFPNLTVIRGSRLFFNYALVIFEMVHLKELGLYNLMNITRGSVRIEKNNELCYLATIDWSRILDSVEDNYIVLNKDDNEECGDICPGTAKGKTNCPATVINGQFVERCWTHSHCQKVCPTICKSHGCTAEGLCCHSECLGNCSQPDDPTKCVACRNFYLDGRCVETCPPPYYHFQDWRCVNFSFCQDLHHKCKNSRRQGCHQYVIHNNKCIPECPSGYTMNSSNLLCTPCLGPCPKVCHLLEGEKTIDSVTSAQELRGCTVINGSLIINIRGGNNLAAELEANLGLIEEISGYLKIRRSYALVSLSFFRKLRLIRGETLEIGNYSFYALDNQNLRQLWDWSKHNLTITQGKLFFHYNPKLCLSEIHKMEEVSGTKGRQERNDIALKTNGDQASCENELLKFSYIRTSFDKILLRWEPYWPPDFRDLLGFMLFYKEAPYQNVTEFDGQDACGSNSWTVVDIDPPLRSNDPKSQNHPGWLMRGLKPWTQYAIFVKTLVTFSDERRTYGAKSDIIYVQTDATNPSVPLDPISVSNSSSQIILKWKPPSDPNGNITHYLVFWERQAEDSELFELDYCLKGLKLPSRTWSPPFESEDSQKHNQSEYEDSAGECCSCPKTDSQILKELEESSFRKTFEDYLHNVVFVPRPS
Target sequence in this assay (P06213 763-1382 partner limits assumed): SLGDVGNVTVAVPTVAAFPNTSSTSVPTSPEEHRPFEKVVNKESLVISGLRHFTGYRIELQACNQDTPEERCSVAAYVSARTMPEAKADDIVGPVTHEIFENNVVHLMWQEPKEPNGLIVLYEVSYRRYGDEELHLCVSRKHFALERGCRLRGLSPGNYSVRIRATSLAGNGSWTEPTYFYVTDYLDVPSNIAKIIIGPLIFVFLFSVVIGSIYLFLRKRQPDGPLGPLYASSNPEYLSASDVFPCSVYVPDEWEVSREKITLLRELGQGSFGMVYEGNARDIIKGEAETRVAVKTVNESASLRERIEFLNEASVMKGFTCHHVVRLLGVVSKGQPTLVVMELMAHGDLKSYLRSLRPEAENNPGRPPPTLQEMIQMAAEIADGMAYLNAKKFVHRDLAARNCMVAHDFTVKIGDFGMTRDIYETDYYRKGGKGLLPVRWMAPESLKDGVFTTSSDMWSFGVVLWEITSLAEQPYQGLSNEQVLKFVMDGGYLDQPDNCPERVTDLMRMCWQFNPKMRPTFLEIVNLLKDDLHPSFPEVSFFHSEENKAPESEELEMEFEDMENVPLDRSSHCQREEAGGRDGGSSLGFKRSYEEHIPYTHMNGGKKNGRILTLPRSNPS
On to “B(1-29)-B1(N^α-3-(mPEG2000-yl)propionyl)-B29A-VGLSSGQ-A(1-21)-A18Q Human Insulin [Example 8]”, for which the “IR binding in percent of human insulin” value was found to be 8.1%. Same read-out and setting: for “B(1-29)-B3K(N^ε-3-(mPEG2000-yl)propionyl)-B29A-VGLSSGQ-A(1-21)-A18Q Human Insulin [Example 7]” the value was 4.5%; for “B(1-29)-B3Q-B29R-TGLGK(N^ε-3-(mPEG2000-yl)propionyl)GQ-A(1-21)-A18Q-A21G Human Insulin [Example 1]”, 6.8%. As for “B(1-29)-B22K(N^ε-3-(mPEG2000-yl)propionyl)-B29A-A18Q-VGLSSGQ-A(1-21) Human Insulin [Example 2]”, the “IR binding in percent of human insulin” value came out at 19.7%. On the same count and under the same terms, for “B(1-29)-B29A-VGLSSGQ-A(1-21)-A8K(N^ε-3-(mPEG2000-yl)propionyl)-A18Q Human Insulin [Example 4]” the value was 4.6%. For the substance “B(1-29)-B29A-VGLSSGQ-A(1-22)-A18Q-A22K(N^ε-3-(mPEG2000-yl)propionyl) Human Insulin [Example 6]”, the “IR binding in percent of human insulin” value is listed as 12%. “B(1-29)-B29A-VK(N^ε-3-(mPEG2000-yl)propionyl)LSSGQ-A(1-21)-A18Q Human Insulin [Example 5]”: the “IR binding in percent of human insulin” value was found to be 3.2%. Regarding “B(1-29)-B29K(N^ε-3-(mPEG2000-yl-propionyl)-VGLSSGQ-A(1-21)-A18Q Human Insulin [Example 3]”, the “IR binding in percent of human insulin” value is recorded as 5.3%.

The next test has as its target T1, human insulin receptor (IR). Nature of the test: displacement of 125I-human insulin from human insulin receptor; affinity relative to human insulin.
Details: not given
For orientation: Displacement assays read how much labelled ligand stays bound in the presence of the test substance.
Target sequence in this assay (P06213 other isoform, or with tags, fused parts or gaps limits assumed, form in doubt): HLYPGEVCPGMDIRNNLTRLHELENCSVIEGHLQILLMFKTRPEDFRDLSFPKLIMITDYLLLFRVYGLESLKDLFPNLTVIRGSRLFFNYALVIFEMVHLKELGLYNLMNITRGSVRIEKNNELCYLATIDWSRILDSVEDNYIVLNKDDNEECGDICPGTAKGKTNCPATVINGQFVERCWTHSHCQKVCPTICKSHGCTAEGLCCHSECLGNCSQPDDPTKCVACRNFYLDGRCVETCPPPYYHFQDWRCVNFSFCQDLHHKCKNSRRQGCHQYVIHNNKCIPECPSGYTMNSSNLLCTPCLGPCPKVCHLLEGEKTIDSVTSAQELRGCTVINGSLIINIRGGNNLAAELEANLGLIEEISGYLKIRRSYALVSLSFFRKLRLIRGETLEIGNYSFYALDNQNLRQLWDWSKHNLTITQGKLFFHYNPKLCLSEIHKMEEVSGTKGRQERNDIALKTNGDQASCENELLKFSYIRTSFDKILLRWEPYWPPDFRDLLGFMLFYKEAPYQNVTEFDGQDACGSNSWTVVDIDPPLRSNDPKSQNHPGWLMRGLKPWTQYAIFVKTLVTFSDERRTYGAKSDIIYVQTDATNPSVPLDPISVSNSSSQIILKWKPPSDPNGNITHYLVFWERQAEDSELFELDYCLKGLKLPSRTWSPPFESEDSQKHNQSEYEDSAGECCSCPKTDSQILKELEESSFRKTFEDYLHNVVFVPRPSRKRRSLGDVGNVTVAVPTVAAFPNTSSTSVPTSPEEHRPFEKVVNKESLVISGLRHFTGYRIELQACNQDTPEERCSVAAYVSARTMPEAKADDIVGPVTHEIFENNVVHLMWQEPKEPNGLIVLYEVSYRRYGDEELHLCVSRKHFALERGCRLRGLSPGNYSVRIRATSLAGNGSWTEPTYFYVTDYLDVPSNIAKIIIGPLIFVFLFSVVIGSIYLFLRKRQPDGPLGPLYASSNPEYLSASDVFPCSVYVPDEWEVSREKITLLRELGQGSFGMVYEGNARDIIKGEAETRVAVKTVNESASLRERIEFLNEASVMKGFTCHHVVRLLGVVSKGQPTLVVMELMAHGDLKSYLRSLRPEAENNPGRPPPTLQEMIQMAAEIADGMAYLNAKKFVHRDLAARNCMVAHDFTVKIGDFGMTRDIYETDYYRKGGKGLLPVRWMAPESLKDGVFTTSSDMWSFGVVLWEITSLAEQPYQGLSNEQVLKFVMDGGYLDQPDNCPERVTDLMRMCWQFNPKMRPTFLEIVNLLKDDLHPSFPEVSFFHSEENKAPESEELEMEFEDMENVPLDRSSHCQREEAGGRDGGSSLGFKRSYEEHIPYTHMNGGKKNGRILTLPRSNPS
The substance “B(1-29)-B1(N^α-3-(mPEG2000-yl)propionyl)-B29A-VGLSSGQ-A(1-21)-A18Q Human Insulin (from UniProt P01308 25-53; P01308 90-110) (ligand)” came in with an IR binding in percent of human insulin of 8.1%. The same measure, in the same setting: under “B(1-29)-B3K(N^ε-3-(mPEG2000-yl)propionyl)-B29A-VGLSSGQ-A(1-21)-A18Q Human Insulin (from UniProt P01308 25-53; P01308 90-110) (ligand)” stands 4.5%; under “B(1-29)-B3Q-B29R-TGLGK(N^ε-3-(mPEG2000-yl)propionyl)GQ-A(1-21)-A18Q-A21G Human Insulin (from UniProt P01308 25-53; P01308 90-110) (ligand)”, 6.8%. As for “B(1-29)-B22K(N^ε-3-(mPEG2000-yl)propionyl)-B29A-A18Q-VGLSSGQ-A(1-21) Human Insulin (from UniProt P01308 25-53; P01308 90-110) (ligand)”, the IR binding in percent of human insulin was determined as 19.7%. In turn, “B(1-29)-B29A-VGLSSGQ-A(1-21)-A8K(N^ε-3-(mPEG2000-yl)propionyl)-A18Q Human Insulin (from UniProt P01308 25-53; P01308 90-110) (ligand)” came in with an IR binding in percent of human insulin of 4.6%. Still for that read-out and setting: for “B(1-29)-B29A-VGLSSGQ-A(1-22)-A18Q-A22K(N^ε-3-(mPEG2000-yl)propionyl) Human Insulin (from UniProt P01308 25-53; P01308 90-110) (ligand)” the value was 12%; for “B(1-29)-B29A-VK(N^ε-3-(mPEG2000-yl)propionyl)LSSGQ-A(1-21)-A18Q Human Insulin (from UniProt P01308 25-53; P01308 90-110) (ligand)”, 3.2%. On to “B(1-29)-B29K(N^ε-3-(mPEG2000-yl-propionyl)-VGLSSGQ-A(1-21)-A18Q Human Insulin (from UniProt P01308 25-53; P01308 90-110) (ligand)”, for which the IR binding in percent of human insulin amounted to 5.3%.
